Among the data in patent US20260092074A1, “Annelated Pyridines as Steroidogenesis Inhibitors, Preparation Method and Use Thereof” (Guangzhou Vinnocent Pharmaceutical Limited, priority 2022, published 2026) are IC50 values, retold here.

SMILES strings stand for the structures.

The target of one test is T1, human CYP11B1 (Homo sapiens, UniProt P15538).
T1 construct: expressed in transfected cells
T1 sequence (P15538 25-503): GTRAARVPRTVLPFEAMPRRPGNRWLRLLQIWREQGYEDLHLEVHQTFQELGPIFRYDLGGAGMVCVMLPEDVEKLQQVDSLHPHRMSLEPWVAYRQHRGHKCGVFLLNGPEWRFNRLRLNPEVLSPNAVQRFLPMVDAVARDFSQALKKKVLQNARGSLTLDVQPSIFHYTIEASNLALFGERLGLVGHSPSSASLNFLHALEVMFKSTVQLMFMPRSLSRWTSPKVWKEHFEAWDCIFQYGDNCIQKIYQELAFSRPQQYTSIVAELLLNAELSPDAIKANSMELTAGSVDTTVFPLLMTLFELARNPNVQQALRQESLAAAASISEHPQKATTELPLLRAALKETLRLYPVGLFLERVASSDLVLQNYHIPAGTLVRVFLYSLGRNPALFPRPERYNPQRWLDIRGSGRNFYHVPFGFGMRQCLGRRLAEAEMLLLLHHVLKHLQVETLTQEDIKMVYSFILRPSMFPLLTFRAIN
Briefly: Inhibition of hCYP11B1 in transfected V79 cells. The test is classed as cell-based. The conditions noted are these: hamster V79 cells expressing human CYP11B1; substrate 11-deoxycortisol 200 nM. Here is the method: (§1) Genes of human CYP11B1 and rat NADPH-P450 reductase were transfected into hamster V79 cells using a lentivirus vector, and stably-expressing cell lines were selected by taking advantages of the associated puromycin-resistance gene. Cultured cells were diluted and seeded in a 96-well plate with an amount of approximately 10,000 per well. After pre-incubation with suitable concentrations of the test compounds for 2 hours, 11-deoxycortisol of 200 nM was added as the substrate to initiate the catalytic reaction. After further incubation for 30 minutes, it was quenched with ethyl acetate. Subsequently, the substrate and product(s) were quantified using LC-MS/MS or HPLC at 260 nm, and the IC50 values were calculated according to inhibitory percentage.

For a further test, the target named is T2, human CYP11B2 (Homo sapiens, UniProt P19099).
T2 construct: expressed in transfected cells
T2 sequence (P19099 25-503): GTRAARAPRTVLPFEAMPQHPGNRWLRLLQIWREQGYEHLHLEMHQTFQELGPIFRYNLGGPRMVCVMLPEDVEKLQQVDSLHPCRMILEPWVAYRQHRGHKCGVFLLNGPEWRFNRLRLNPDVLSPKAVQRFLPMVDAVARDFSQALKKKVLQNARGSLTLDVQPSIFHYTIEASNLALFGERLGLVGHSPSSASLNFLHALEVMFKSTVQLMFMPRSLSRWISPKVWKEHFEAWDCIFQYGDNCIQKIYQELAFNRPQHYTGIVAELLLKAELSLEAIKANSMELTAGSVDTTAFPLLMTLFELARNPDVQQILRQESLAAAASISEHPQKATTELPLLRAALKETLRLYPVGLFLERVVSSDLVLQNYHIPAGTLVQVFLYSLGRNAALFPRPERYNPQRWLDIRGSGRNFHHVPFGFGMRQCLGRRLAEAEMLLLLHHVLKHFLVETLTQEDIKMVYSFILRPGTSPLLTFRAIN
Briefly: Inhibition of hCYP11B2 in transfected V79 cells. The conditions noted are these: hamster V79 cells expressing human CYP11B2; substrate 11-deoxycorticosterone 200 nM. In kind it is cell-based. Here is the method:
as §1, with “CYP11B2” for “CYP11B1”, “11-deoxycorticosterone” for “11-deoxycortisol”

As usually defined, the IC50 is the point on the concentration scale where inhibition reaches its midpoint. For `N#Cc1ccc(-c2cncc3c2CCN3C(=O)c2cccc([N+](=O)[O-])c2)cc1` [C27, 4-(1-(3-Nitrobenzoyl)-2,3-dihydro-1H-pyrrolo[2,3-c]pyridin-4-yl)benzonitrile], the 50% inhibitory concentration (IC50) on human CYP11B1 came out at 117 nM; at human CYP11B2 it was 2.3 nM.

As to `N#Cc1ccc(-c2cncc3c2CCN3C(=O)c2cccc(F)c2)cc1` [C28, 4-(1-(3-fluorobenzoyl)-2,3-dihydro-1H-pyrrolo[2,3-c]pyridin-4-yl)benzonitrile], the IC50 is 310 nM on human CYP11B1 and 7 nM against human CYP11B2.

In the case of `N#Cc1ccc(-c2cncc3c2CCN3C(=O)c2cccnc2)cc1` [C29, 4-(1-Nicotinoyl-2,3-dihydro-1H-pyrrolo[2,3-c]pyridin-4-yl)benzonitrile], the concentration for half-maximal inhibition (IC50) against human CYP11B1 came out at 185 nM; against human CYP11B2, 1.7 nM.

Turning to `N#Cc1ccc(-c2cncc3c2CCN3C(=O)c2ccc([N+](=O)[O-])cc2)cc1` [C30, 4-(1-(4-Nitrobenzoyl)-2,3-dihydro-1H-pyrrolo[2,3-c]pyridin-4-yl)benzonitrile], the results for the IC50 against human CYP11B1 and on human CYP11B2 were 472 nM and 11 nM, respectively.

Regarding `N#Cc1ccc(-c2cncc3c2CCN3C(=O)c2ccccc2F)cc1` [C31, 4-(1-(2-Fluorobenzoyl)-2,3-dihydro-1H-pyrrolo[2,3-c]pyridin-4-yl)benzonitrile], the IC50 against human CYP11B1 turned out to be 305 nM; at human CYP11B2, 4.6 nM.

With `N#Cc1ccc(-c2cncc3c2CCN3C(=O)c2ccccc2C(F)(F)F)cc1` [C32, 4-(1-(2-(Trifluoromethyl)benzoyl)-2,3-dihydro-1H-pyrrolo[2,3-c]pyridin-4-yl)benzonitrile], the 50% inhibitory concentration (IC50) against human CYP11B1 amounted to 233 nM; at human CYP11B2 it was 18 nM.

Consider `Cc1ccc(C(=O)N2CCc3c(-c4ccc(C#N)cc4)cncc32)cc1` [C33, 4-(1-(4-Methylbenzoyl)-2,3-dihydro-1H-pyrrolo[2,3-c]pyridin-4-yl)benzonitrile], for which the 50% inhibitory concentration (IC50) was 245 nM against human CYP11B1 and 25 nM at human CYP11B2.

For the molecule `COc1ccccc1C(=O)N1CCc2c(-c3ccc(C#N)cc3)cncc21` [C34, 4-(1-(2-Methoxybenzoyl)-2,3-dihydro-1H-pyrrolo[2,3-c]pyridin-4-yl)benzonitrile], the IC50 is 284 nM against human CYP11B1 and 22 nM against human CYP11B2.

For `N#Cc1ccc(-c2cncc3c2CCN3C(=O)c2ccccc2[N+](=O)[O-])cc1` [C35, 4-(1-(2-Nitrobenzoyl)-2,3-dihydro-1H-pyrrolo[2,3-c]pyridin-4-yl)benzonitrile], the concentration for half-maximal inhibition (IC50) against human CYP11B1 was determined as 459 nM; at human CYP11B2, 31 nM.

As to `Cc1ccccc1C(=O)N1CCc2c(-c3ccc(C#N)cc3)cncc21` [C36, 4-(1-(2-Methylbenzoyl)-2,3-dihydro-1H-pyrrolo[2,3-c]pyridin-4-yl)benzonitrile], the IC50 on human CYP11B1 amounted to 297 nM; at human CYP11B2, 28 nM.

On to `N#Cc1ccc(-c2cncc3c2CCN3C(=O)c2cccc(C#N)c2)cc1` [C37, 3-(4-(4-Cyanophenyl)-2,3-dihydro-1H-pyrrolo[2,3-c]pyridine-1-carbonyl)benzonitrile], for which the IC50 was 766 nM against human CYP11B1 and 60 nM against human CYP11B2.

Regarding `N#Cc1ccc(-c2cncc3c2CCN3C(=O)c2ccc(Cl)cc2)cc1` [C38, 4-(1-(4-Chlorobenzoyl)-2,3-dihydro-1H-pyrrolo[2,3-c]pyridin-4-yl)benzonitrile], the 50% inhibitory concentration (IC50) against human CYP11B1 came out at 606 nM; on human CYP11B2 it was 40 nM.

For `N#Cc1ccc(-c2cncc3c2CCN3C(=O)c2cccc(Cl)c2)cc1` [C39, 4-(1-(3-Chlorobenzoyl)-2,3-dihydro-1H-pyrrolo[2,3-c]pyridin-4-yl)benzonitrile], the half-inhibitory concentration (IC50) against human CYP11B1 came out at 298 nM; at human CYP11B2 it was 23 nM.

With `Cc1cccc(C(=O)N2CCc3c(-c4ccc(C#N)cc4)cncc32)c1` [C40, 4-(1-(3-Methylbenzoyl)-2,3-dihydro-1H-pyrrolo[2,3-c]pyridin-4-yl)benzonitrile], the half-maximal inhibitory concentration (IC50) at human CYP11B1 is 352 nM; at human CYP11B2, 29 nM.

Take `N#Cc1ccc(-c2cncc3c2CCN3C(=O)c2ccccc2)cc1` [C41, 4-(1-Benzoyl-2,3-dihydro-1H-pyrrolo[2,3-c]pyridin-4-yl)benzonitrile]: the values for the concentration for half-maximal inhibition (IC50) at human CYP11B1 and against human CYP11B2 were 353 nM and 40 nM, respectively.

For the molecule `CC(C)(C)C(=O)N1CCc2c(-c3ccc(C#N)cc3)cncc21` [C42, 4-(1-Pivaloyl-2,3-dihydro-1H-pyrrolo[2,3-c]pyridin-4-yl)benzonitrile], the IC50 at human CYP11B1 came out at 1570 nM; against human CYP11B2 it was 45 nM.

With `N#Cc1ccc(-c2cncc3c2CCN3C(=O)CCl)cc1` [C43, 4-(1-(2-Chloroacetyl)-2,3-dihydro-1H-pyrrolo[2,3-c]pyridin-4-yl)benzonitrile], the results for the 50% inhibitory concentration (IC50) at human CYP11B1 and at human CYP11B2 were 897 nM and 99 nM, respectively.

As to `N#Cc1ccc(-c2cncc3c2CCN3C(=O)c2ccco2)cc1` [C44, 4-(1-(Furan-2-carbonyl)-2,3-dihydro-1H-pyrrolo[2,3-c]pyridin-4-yl)benzonitrile], the IC50 against human CYP11B1 was determined as 139 nM; on human CYP11B2 it was 27 nM.

With `Cc1ccsc1C(=O)N1CCc2c(-c3ccc(C#N)cc3)cncc21` [C45, 4-(1-(3-Methylthiophene-2-carbonyl)-2,3-dihydro-1H-pyrrolo[2,3-c]pyridin-4-yl)benzonitrile], the 50% inhibitory concentration (IC50) was found to be 152 nM on human CYP11B1 and 20 nM against human CYP11B2.

As to `N#Cc1ccc(-c2cncc3c2CCN3C(=O)c2cccs2)cc1` [C46, 4-(1-(Thiophene-2-carbonyl)-2,3-dihydro-1H-pyrrolo[2,3-c]pyridin-4-yl)benzonitrile], the IC50 was 274 nM against human CYP11B1 and 5.4 nM at human CYP11B2.

Take `COC(=O)c1ccc(C(=O)N2CCc3c(-c4ccc(C#N)cc4)cncc32)cc1` [C47]: the concentration for half-maximal inhibition (IC50) came to 19 nM on human CYP11B1 and 17 nM at human CYP11B2.

In the case of `N#Cc1ccc(C(=O)N2CCc3c(-c4ccc(C#N)cc4)cncc32)cc1` [C48, 4-(1-(4-Cyanobenzoyl)-2,3-dihydro-1H-pyrrolo[2,3-c]pyridin-4-yl)benzonitrile], the IC50 against human CYP11B1 is 762 nM; on human CYP11B2 it was 7.3 nM.

As for `N#Cc1ccc(-c2cncc3c2CCN3C(=O)c2ccc(CBr)cc2)cc1` [C49, 4-(1-(4-(Bromomethyl)benzoyl)-2,3-dihydro-1H-pyrrolo[2,3-c]pyridin-4-yl)benzonitrile], the results for the IC50 at human CYP11B1 and against human CYP11B2 were 971 nM and 25 nM, respectively.

On to `O=C(c1ccccc1F)N1CCc2c(-c3ccc4[nH]ncc4c3)cncc21` [C50, (4-(1H-Indazol-5-yl)-2,3-dihydro-1H-pyrrolo[2,3-c]pyridin-1-yl)(2-fluorophenyl)methanone], for which the IC50 against human CYP11B1 worked out at 1270 nM; on human CYP11B2, 97 nM.

Regarding `Cn1ncc2cc(-c3cncc4c3CCN4C(=O)c3ccccc3F)ccc21` [C51, (2-Fluorophenyl)(4-(1-methyl-1H-indazol-5-yl)-2,3-dihydro-1H-pyrrolo[2,3-c]pyridin-1-yl)methanone], the IC50 on human CYP11B1 was determined as 4250 nM; against human CYP11B2, 23 nM.

Turning to `O=C(c1ccccc1F)N1CCc2c(-c3cccc(F)c3)cncc21` [C52, (2-fluorophenyl)(4-(3-fluorophenyl)-2,3-dihydro-1H-pyrrolo[2,3-c]pyridin-1-yl)methanone], the 50% inhibitory concentration (IC50) against human CYP11B1 is 891 nM; against human CYP11B2, 44 nM.

Consider `O=C(c1ccccc1F)N1CCc2c(-c3cccc([N+](=O)[O-])c3)cncc21` [C53, (2-Fluorophenyl)(4-(3-nitrophenyl)-2,3-dihydro-1H-pyrrolo[2,3-c]pyridin-1-yl)methanone], for which the IC50 at human CYP11B1 worked out at 378 nM; against human CYP11B2 it was 11 nM.

For the molecule `O=C(c1ccccc1F)N1CCc2c(-c3ccc(Cl)cc3)cncc21` [C54, (4-(4-Chlorophenyl)-2,3-dihydro-1H-pyrrolo[2,3-c]pyridin-1-yl)(2-fluorophenyl)methanone], the half-inhibitory concentration (IC50) is 895 nM on human CYP11B1 and 45 nM against human CYP11B2.
